± gives the uncertainty stated by the source.
Test system: ozone
Assay: apparent second-order rate constant for reaction with ozone (kapp,O3) (M-1 s-1); higher = faster oxidation by ozone
Conditions: pH 7; temperature: 22 C; OH radical scavenger: tBuOH 80 mM; phosphate 4 mM
Method: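 Apparent second-order rate constants for reaction with ozone at pH 7 were determined by multicompound competition kinetics. Mixtures of targets and competitors (10 ug/L each) were ozonated in 4 mM phosphate buffer, pH 7, with 80 mM tBuOH as OH-radical scavenger, at 22 ± 1 °C. Peak-area abatement was measured by HPLC-HRMS/MS and k was derived from ln-ln slopes against competitors with known k (R2 > 0.9, >= 10 points, slope 0.1-10). Experiments were run in triplicate on 3 days; the value is the mean over valid competitors ± SD.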

Row | SMILES | apparent second-order rate constant
1 | CC(C)(C(=O)O)c1ccc(C(O)CCCN2CCC(C(O)(c3ccccc3)c3ccccc3)CC2)cc1 (stereo not drawn) [Fexofenadine] | 2950 ± 260
2 | CN(C=O)CCC(Oc1ccc(C(F)(F)F)cc1)c1ccccc1 (stereo not drawn) [Fluoxetine formamide] | 2.7 ± 0.3
3 | CNCCC(Oc1ccc(C(F)(F)F)cc1)c1ccccc1 (stereo not drawn) [Fluoxetine] | 1720 ± 50
4 | O=C1CC2(CCCCC2)CN1 [Gabapentin-lactam] | 1.51 ± 0.16
5 | NCC1(CC(=O)O)CCCCC1 [Gabapentin] | 11.4 ± 1.2
6 | Nc1ccn(C2OC(CO)C(O)C2(F)F)c(=O)n1 (stereo not drawn) [Gemcitabine] | 390 ± 30
7 | COc1ccc(C2CC(=O)c3c(O)cc(O)cc3O2)cc1O (stereo not drawn) [Hesperitin] | 3.3e+07 ± 7e+06
8 | NS(=O)(=O)c1cc2c(cc1Cl)NCNS2(=O)=O [Hydrochlorothiazide] | 3000 ± 300
9 | CC12CCC(=O)C=C1CCC1C2C(O)CC2(C)C1CCC2(O)C(=O)CO (stereo not drawn) [Hydrocortisone] | 420 ± 25
10 | CC(NC(C)(C)CO)C(=O)c1cccc(Cl)c1 (stereo not drawn) [Hydroxybupropion] | 3630 ± 310
11 | CC(C)NC(=O)NS(=O)(=O)c1cnccc1Nc1cccc(CO)c1 [Hydroxytorasemide] | 850 ± 70
12 | C1=Cc2ccccc2Nc2ccccc21 [Iminostilbene] | 7.6e+07 ± 1.7e+07
13 | COc1ccc2c(c1)c(CC(=O)O)c(C)n2C(=O)c1ccc(Cl)cc1 [Indomethacin] | 5.15e+06 ± 670000
14 | COCC(=O)Nc1c(I)c(C(=O)NCC(O)CO)c(I)c(C(=O)N(C)CC(O)CO)c1I (stereo not drawn) [Iopromide] | 2.14 ± 0.23
15 | CNC1(c2ccccc2Cl)CCCCC1=O (stereo not drawn) [Ketamine] | 10400 ± 1000
16 | CC(C(=O)O)c1cccc(C(=O)c2ccccc2)c1 (stereo not drawn) [Ketoprofen] | 0.529 ± 0.016
17 | Nc1ccn([C@@H]2CS[C@H](CO)O2)c(=O)n1 [Lamivudine] | 61000 ± 14000

Row | SMILES | apparent second-order rate constant
18 | Nc1nc(N)[n+]([C@@H]2O[C@H](C(=O)O)[C@@H](O)[C@H](O)[C@H]2O)nc1-c1cccc(Cl)c1Cl [Lamotrigine-N2-glucuronide] | 371 ± 20
19 | Nc1nnc(-c2cccc(Cl)c2Cl)c(N)n1 [Lamotrigine] | 17.1 ± 1.2
20 | CCC(C(=O)O)N1CCCC1=O (stereo not drawn) [Levetiracetam acid] | 0.66 ± 0.08
21 | CCC(C(N)=O)N1CCCC1=O (stereo not drawn) [Levetiracetam] | 0.81 ± 0.09
22 | NC(=O)N1c2ccccc2CC(O)c2ccccc21 (stereo not drawn) [Licarbazepine] | 10.9 ± 1.2
23 | CCNCC(=O)Nc1c(C)cccc1C [Lidocaine-N-desethyl] | 17000 ± 1700
24 | CC[N+]([O-])(CC)CC(=O)Nc1c(C)cccc1C [Lidocaine-N-oxide] | 10.9 ± 1.2
25 | CCN(CC)CC(=O)Nc1c(C)cccc1C [Lidocaine] | 185000 ± 17000
26 | CCC(=O)C(CC(C)N(C)C)(c1ccccc1)c1ccccc1 (stereo not drawn) [Methadone] | 4250 ± 360
27 | COC(=O)C(c1ccccc1)C1CCCCN1 (stereo not drawn) [Methylphenidate] | 4300 ± 360
28 | CN1CCC23c4c5ccc(O)c4OC2C(O)C=CC3C1C5 (stereo not drawn) [Morphine] | 3.8e+07 ± 8e+06
29 | CNCC(CC(=O)O)CC(C)C (stereo not drawn) [N-Methylpregabalin] | 143 ± 7.6
30 | COc1ccc2c3c1OC1C(O)C=CC4C(C2)NCCC341 (stereo not drawn) [Norcodeine] | 2.68e+06 ± 51000
31 | C#CCNC(C)Cc1ccccc1 (stereo not drawn) [Nordeprenyl] | 14000 ± 1200
32 | CC(N)C(O)c1ccccc1 (stereo not drawn) [Norephedrine] | 45.5 ± 2.3
33 | NC1(c2ccccc2Cl)CCCCC1=O (stereo not drawn) [Norketamine] | 37.5 ± 2.5

Further lines, results first:

Row | apparent second-order rate constant | SMILES
34 | 198000 ± 16000 | CCCCc1nc(Cl)c(CO)n1Cc1ccc(-c2ccccc2-c2nn[nH]n2)cc1 [Losartan]
35 | 1.12e+06 ± 80000 | Cc1cccc(Nc2ccccc2C(=O)O)c1C [Mefenamic acid]
36 | 87 ± 4.5 | CC1CC2C(C(O)CC3(C)C2CCC3(O)C(=O)CO)C2(C)C=CC(=O)C=C12 (stereo not drawn) [Methylprednisolone]
37 | 295000 ± 26000 | C[N+]1([O-])CCN2c3ccccc3Cc3ccccc3C2C1 (stereo not drawn) [Mianserin-N-oxide]
38 | 1.94e+06 ± 100000 | CN1CCN2c3ccccc3Cc3ccccc3C2C1 (stereo not drawn) [Mianserin]
39 | 957000 ± 81000 | CN1CCN2c3ncccc3Cc3ccccc3C2C1 (stereo not drawn) [Mirtazapine]
40 | 7.2e+07 ± 1.5e+07 | COc1c(C)c2c(c(O)c1CC=C(C)CCC(=O)O)C(=O)OC2 [Mycophenolic acid]
41 | 89 ± 4.9 | CC(=O)Nc1ccc(S(=O)(=O)Nc2ncccn2)cc1 [N4-Acetylsulfadiazine]
42 | 337000 ± 28000 | COc1cc(OC)nc(NS(=O)(=O)c2ccc(NC(C)=O)cc2)n1 [N4-Acetylsulfadimethoxine]
43 | 815 ± 43 | CC(=O)Nc1ccc(S(=O)(=O)Nc2nc(C)cc(C)n2)cc1 [N4-Acetylsulfamethazine]
44 | 947 ± 280 | CC(=O)Nc1ccc(S(=O)(=O)Nc2ccccn2)cc1 [N4-Acetylsulfapyridine]
45 | 1.02e+07 ± 1.2e+06 | CC(=O)Nc1ccc(S(=O)(=O)Nc2nccs2)cc1 [N4-Acetylsulfathiazole]
46 | 1.99e+06 ± 120000 | CNCC(c1ccc(O)cc1)C1(O)CCCCC1 (stereo not drawn) [N,O-Didesmethylvenlafaxine]
47 | 10300 ± 980 | CCC1OC(=O)C(C)C(OC2CC(C)(OC)C(O)C(C)O2)C(C)C(OC2OC(C)CC(NC)C2O)C(C)(O)CC(C)CN(C)C(C)C(O)C1(C)O (stereo not drawn) [N-Desmethylazithromycin]
48 | 532 ± 28 | CNCCCC1(c2ccc(F)cc2)OCc2cc(C#N)ccc21 (stereo not drawn) [N-Desmethylcitalopram]
49 | 6500 ± 520 | CCC1OC(=O)C(C)C(OC2CC(C)(OC)C(O)C(C)O2)C(C)C(OC2OC(C)CC(NC)C2O)C(C)(OC)CC(C)C(=O)C(C)C(O)C1(C)O (stereo not drawn) [N-Desmethylclarithromycin]
50 | 975 ± 49 | CNCCC(c1ccccc1)c1ccccn1 (stereo not drawn) [N-Desmethylpheniramine]
51 | 26000 ± 2800 | CC(C)c1nc(NS(C)(=O)=O)nc(-c2ccc(F)cc2)c1C=CC(O)CC(O)CC(=O)O (stereo not drawn) [N-Desmethylrosuvastatin]
52 | 993 ± 55 | CNCC(c1ccc(OC)cc1)C1(O)CCCCC1 (stereo not drawn) [N-Desmethylvenlafaxine]
53 | 34.3 ± 2.1 | N#Cc1ccc2c(c1)COC2(CCCN)c1ccc(F)cc1 (stereo not drawn) [N-Didesmethylcitalopram]
54 | 278000 ± 25000 | COC(=O)C(C)c1ccc2cc(OC)ccc2c1 (stereo not drawn) [Naproxen methyl ester]
55 | 500000 ± 46000 | COc1ccc2cc(C(C)C(=O)O)ccc2c1 (stereo not drawn) [Naproxen]
56 | 86 ± 9 | Cc1ccnc2c1NC(=O)c1cccnc1N2C1CC1 [Nevirapine]
57 | 332000 ± 30000 | CN1CCCC1c1cccnc1 (stereo not drawn) [Nicotine]
58 | 42 ± 2.5 | NCCC(Oc1ccc(C(F)(F)F)cc1)c1ccccc1 (stereo not drawn) [Norfluoxetine]

From the supplement of paper PMC12490022
